Reference: patent US9227971B2, “Pyrazolo[1,5-a]pyrimidine compounds as mTOR inhibitors” (Merck Sharp & Dohme Corp., priority 2010, dated 2016)
Read-outs that look alike come from different tables or passages of the source.

What was measured:
[1] = tested on: phosphorylated AKT Ser473 (pAKT S473), mTORC2 activity, PC3 cells; experiment: mTOR target engagement assay, immunofluorescent cell-based, pAKT S473 readout (mTORC2 activity); conditions: Homo sapiens
Summary of the method: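 After blocking, cells were stained overnight at 4 °C with anti-pAKT S473 antibody, then a fluorescent secondary; inhibition was read as reduced fluorescence intensity.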

[2] = tested on: phosphorylated 4E-BP1 Thr37/46 (p4E-BP1 Thr37/46), mTORC1 activity, PC3 cells; experiment: mTOR target engagement assay, immunofluorescent cell-based, p4E-BP1 Thr37/46 readout (mTORC1 activity); conditions: Homo sapiens, read-out: p4E-BP1 Thr37/46 IC50
Summary of the method: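 Cell-based immunofluorescence in PC3 cells: serially diluted compounds (0.25% DMSO, 5% FBS) applied for ninety minutes at 37° C before fixation and overnight 4° C staining of p4E-BP1 Thr37/46. Untreated DMSO wells set maximal phosphorylation; IC50 obtained by logistic fitting.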

[3] = PC-3, PC3 cells, compound treatment ninety minutes at 37° C.

## CC(=O)c1c([C@@H]2C[C@H]3CC[C@@H](C2)N3C(=O)CO)nc2c(-c3ccc(-c4ncc[nH]4)nc3)cnn2c1N [Compound 6.3, 1-((1R,3s,5S)-3-(3-(6-(1H-imidazol-2-yl)pyridin-3-yl)-6-acetyl-7-aminopyrazolo[1,5-a]pyrimidin-5-yl)-8-azabicyclo[3.2.1]octan-8-yl)-2-hydroxyethanone]
[1]; PC-3, Table 6-1, PC3 cells
  IC50: 0.001 to 0.1 µM
[2]; PC-3, Table 6-1, PC3 cells
  IC50: 0.001 to 0.1 µM

## CC(=O)c1c([C@@H]2C[C@H]3CC[C@@H](C2)N3C(=O)c2nnc[nH]2)nc2c(-c3cnc(-c4ccn(C)n4)c(C)c3)cnn2c1N [Compound 1.1.114, 1-(5-((1R,3s,5S)-8-(4H-1,2,4-triazole-3-carbonyl)-8-azabicyclo[3.2.1]octan-3-yl)-7-amino-3-(5-methyl-6-(1-methyl-1H-pyrazol-3-yl)pyridin-3-yl)pyrazolo[1,5-a]pyrimidin-6-yl)ethanone]
[1]; [3]
  IC50: 1 to 10 µM
[2]; [3]
  IC50: 1 to 10 µM

## CC(=O)NCC(=O)N1[C@@H]2CC[C@H]1C[C@H](c1nc3c(-c4ccc(-c5ccccc5)nc4)cnn3c(N)c1S(C)(=O)=O)C2 [Compound 3.203, N-(2-((1R,3s,5S)-3-(7-amino-6-(methylsulfonyl)-3-(6-phenylpyridin-3-yl)pyrazolo[1,5-a]pyrimidin-5-yl)-8-azabicyclo[3.2.1]octan-8-yl)-2-oxoethyl)acetamide]
[1]; PC-3, Table 3-1, PC3 cells
  IC50: 0.001 to 0.1 µM
[2]; PC-3, Table 3-1, PC3 cells
  IC50: 0.001 to 0.1 µM

## CS(=O)(=O)c1c([C@@H]2C[C@H]3CC[C@@H](C2)N3C(=O)C(F)(F)F)nc2c(-c3ccc(-c4ccccc4)nc3)cnn2c1N [Compound 3.91, 1-((1R,3s,5S)-3-(7-amino-6-(methylsulfonyl)-3-(6-phenylpyridin-3-yl)pyrazolo[1,5-a]pyrimidin-5-yl)-8-azabicyclo[3.2.1]octan-8-yl)-2,2,2-trifluoroethanone]
[1]; PC-3, Table 3-1, PC3 cells
  IC50: 1 to 10 µM
[2]; PC-3, Table 3-1, PC3 cells
  IC50: 1 to 10 µM

## CS(=O)(=O)c1c([C@@H]2C[C@H]3CC[C@@H](C2)N3C(=O)CO)nc2c(-c3ccc(-c4ccccc4)nc3)cnn2c1N [Compound 3.1, 1-((1R,3s,5S)-3-(7-amino-6-(methylsulfonyl)-3-(6-phenylpyridin-3-yl)pyrazolo[1,5-a]pyrimidin-5-yl)-8-azabicyclo[3.2.1]octan-8-yl)-2-hydroxyethanone]
[1]; PC-3, Table 3-1, PC3 cells
  IC50: 0.001 to 0.1 µM
[2]; PC-3, Table 3-1, PC3 cells
  IC50: 0.1 to 1 µM

## N#C/N=C(\N)N1[C@@H]2CC[C@H]1C[C@H](c1cc(N)n3ncc(-c4ccc(-c5ccccc5)nc4)c3n1)C2 [Compound 8.86]
[1]; PC-3, PC3 cells
  IC50: 1 to 10 µM
[2]; PC-3, PC3 cells
  IC50: 1 to 10 µM

## CC1(O)CCCc2cc(-c3cnn4c(N)c(C5CC5)c([C@H]5CC6CC[C@H](C5)N6C(=O)c5nnc[nH]5)nc34)cnc21 (stereo partly drawn) [Compound 7.55, ((1R,3s,5S)-3-(7-amino-6-cyclopropyl-3-(8-hydroxy-8-methyl-5,6,7,8-tetrahydroquinolin-3-yl)pyrazolo[1,5-a]pyrimidin-5-yl)-8-azabicyclo[3.2.1]octan-8-yl)(4H-1,2,4-triazol-3-yl)methanone]
[1]; PC-3, PC3 cells
  IC50: 0.1 to 1 µM
[2]; PC-3, PC3 cells
  IC50: 0.1 to 1 µM

## CS(=O)(=O)c1c([C@@H]2C[C@H]3CC[C@@H](C2)N3C(=O)c2nnn[nH]2)nc2c(-c3ccc(-c4ccccc4)nc3)cnn2c1N [Compound 3.5, ((1R,3s,5S)-3-(7-amino-6-(methylsulfonyl)-3-(6-phenylpyridin-3-yl)pyrazolo[1,5-a]pyrimidin-5-yl)-8-azabicyclo[3.2.1]octan-8-yl)(1H-tetrazol-5-yl)methanone]
[1]; PC-3, Table 3-1, PC3 cells
  IC50: 1 to 10 µM
[2]; PC-3, Table 3-1, PC3 cells
  IC50: > 10 µM

## CC(=O)c1c([C@@H]2C[C@H]3CC[C@@H](C2)N3C(=O)c2nnc[nH]2)nc2c(-c3ccc(-n4ccnc4)nc3)cnn2c1N [Compound 1.1.129, 1-(3-(6-(1H-imidazol-1-yl)pyridin-3-yl)-5-((1R,3s,5S)-8-(4H-1,2,4-triazole-3-carbonyl)-8-azabicyclo[3.2.1]octan-3-yl)-7-aminopyrazolo[1,5-a]pyrimidin-6-yl)ethanone]
[1]; [3]
  IC50: > 10 µM
[2]; [3]
  IC50: > 10 µM

## CC(=O)c1c([C@@H]2C[C@H]3CC[C@@H](C2)N3C(=O)c2nnc[nH]2)nc2c(-c3cnn(-c4ccccn4)c3)cnn2c1N [Compound 1.1.161, 1-(5-((1R,3s,5S)-8-(4H-1,2,4-triazole-3-carbonyl)-8-azabicyclo[3.2.1]octan-3-yl)-7-amino-3-(1-(pyridin-2-yl)-1H-pyrazol-4-yl)pyrazolo[1,5-a]pyrimidin-6-yl)ethanone]
[1]; [3]
  IC50: 0.1 to 1 µM
[2]; [3]
  IC50: 0.1 to 1 µM

## CC(=O)c1c([C@@H]2C[C@H]3CC[C@@H](C2)N3C(=O)CO)nc2c(-c3ccc(-n4cc(C)cn4)nc3)cnn2c1N [Compound 1.1.134, 1-((1R,3s,5S)-3-(6-acetyl-7-amino-3-(6-(4-methyl-1H-pyrazol-1-yl)pyridin-3-yl)pyrazolo[1,5-a]pyrimidin-5-yl)-8-azabicyclo[3.2.1]octan-8-yl)-2-hydroxyethanone]
[1]; [3]
  IC50: 0.001 to 0.1 µM
[2]; [3]
  IC50: 0.1 to 1 µM

## CCc1ccc(-c2cnn3c(N)c(C(C)=O)c([C@@H]4C[C@H]5CC[C@@H](C4)N5C(=O)c4nnc[nH]4)nc23)cn1 [Compound 1.1.99, 1-(5-((1R,3s,5S)-8-(4H-1,2,4-triazole-3-carbonyl)-8-azabicyclo[3.2.1]octan-3-yl)-7-amino-3-(6-ethylpyridin-3-yl)pyrazolo[1,5-a]pyrimidin-6-yl)ethanone]
[1]; [3]
  IC50: 0.001 to 0.1 µM
[2]; [3]
  IC50: 0.001 to 0.1 µM

## Cc1nnc(C(=O)N2[C@@H]3CC[C@H]2C[C@H](c2nc4c(-c5ccc(C6(O)CCC6)nc5)cnn4c(N)c2C2CC2)C3)[nH]1 [Compound 7.71, ((1R,3s,5S)-3-(7-amino-6-cyclopropyl-3-(6-(1-hydroxycyclobutyl)pyridin-3-yl)pyrazolo[1,5-a]pyrimidin-5-yl)-8-azabicyclo[3.2.1]octan-8-yl)(5-methyl-4H-1,2,4-triazol-3-yl)methanone]
[1]; PC-3, PC3 cells
  IC50: 0.1 to 1 µM
[2]; PC-3, PC3 cells
  IC50: 0.1 to 1 µM

## Nc1c(C2CC2)c([C@@H]2C[C@H]3CC[C@@H](C2)N3C(=O)c2nnc[nH]2)nc2c(-c3ccc(-c4ccccc4)nc3)cnn12 [Compound 4.1, ((1R,3a,5S)-3-(7-amino-6-cyclopropyl-3-(6-phenylpyridin-3-yl)pyrazolo[1,5-a]pyrimidin-5-yl)-8-azabicyclo[3.2.1]octan-8-yl)(4H-1,2,4-triazol-3-yl)methanone]
[1]; [3]
  IC50: 0.001 to 0.1 µM
[2]; [3]
  IC50: 0.001 to 0.1 µM

## CS(=O)(=O)c1c([C@H]2CC3CC[C@H](C2)N3C(=O)c2nnc[nH]2)nc2c(-c3cnc4c(c3)CCC4O)cnn2c1N (stereo partly drawn) [Compound 7.62, ((1R,3s,5S)-3-(7-amino-3-(7-hydroxy-6,7-dihydro-5H-cyclopenta[b]pyridin-3-yl)-6-(methylsulfonyl)pyrazolo [1,5-a]pyrimidin-5-yl)-8-azabicyclo[3.2.1]octan-8-yl)(4H-1,2,4-triazol-3-yl)methanone]
[1]; PC-3, PC3 cells
  IC50: 1 to 10 µM
[2]; PC-3, PC3 cells
  IC50: 1 to 10 µM

## CS(=O)(=O)c1c([C@@H]2C[C@H]3CC[C@@H](C2)N3C(=O)c2c[nH]c(=O)[nH]2)nc2c(-c3ccc(-c4ccccc4)nc3)cnn2c1N [Compound 3.139, 4-((1R,3s,5S)-3-(7-amino-6-(methylsulfonyl)-3-(6-phenylpyridin-3-yl)pyrazolo[1,5-a]pyrimidin-5-yl)-8-azabicyclo[3.2.1]octane-8-carbonyl)-1H-imidazol-2(3H)-one]
[1]; PC-3, Table 3-1, PC3 cells
  IC50: 0.001 to 0.1 µM
[2]; PC-3, Table 3-1, PC3 cells
  IC50: 0.1 to 1 µM

## CC(=O)c1c([C@@H]2C[C@H]3CC[C@@H](C2)N3S(=O)(=O)O)nc2c(-c3ccc(-c4ccccc4)nc3)cnn2c1N [Compound 1.1.49, (1R,3s,5S)-3-(6-acetyl-7-amino-3-(6-phenylpyridin-3-yl)pyrazolo[1,5-a]pyrimidin-5-yl)-8-azabicyclo[3.2.1]octane-8-sulfonic acid]
[1]; [3]
  IC50: 1 to 10 µM
[2]; [3]
  IC50: > 10 µM

## CC(=O)c1c([C@@H]2C[C@H]3CC[C@@H](C2)N3C(=O)C(N)=O)nc2c(-c3ccc(-c4ccccc4)nc3)cnn2c1N [Compound 1.1.118, 2-((1R,3s,5S)-3-(6-acetyl-7-amino-3-(6-phenylpyridin-3-yl)pyrazolo[1,5-a]pyrimidin-5-yl)-8-azabicyclo[3.2.1]octan-8-yl)-2-oxoacetamide]
[1]; [3]
  IC50: 0.1 to 1 µM
[2]; [3]
  IC50: 0.1 to 1 µM

## COc1ccc(-c2ccc(-c3cnn4c(N)c(S(C)(=O)=O)c([C@@H]5C[C@H]6CC[C@@H](C5)N6C(=O)c5nnc[nH]5)nc34)cn2)cn1 [Compound 3.164, ((1R,3s,5S)-3-(7-amino-3-(6′-methoxy-2,3′-bipyridin-5-yl)-6-(methylsulfonyl)pyrazolo[1,5-a]pyrimidin-5-yl)-8-azabicyclo[3.2.1]octan-8-yl)(4H-1,2,4-triazol-3-yl)methanone]
[1]; PC-3, Table 3-1, PC3 cells
  IC50: 0.1 to 1 µM
[2]; PC-3, Table 3-1, PC3 cells
  IC50: 0.1 to 1 µM

## CS(=O)(=O)c1c([C@@H]2C[C@H]3CC[C@@H](C2)N3C(=O)c2cc(C(F)(F)F)n[nH]2)nc2c(-c3ccc(-c4ccccc4)nc3)cnn2c1N [Compound 3.73, ((1R,3s,5S)-3-(7-amino-6-(methylsulfonyl)-3-(6-phenylpyridin-3-yl)pyrazolo[1,5-a]pyrimidin-5-yl)-8-azabicyclo[3.2.1]octan-8-yl)(3-(trifluoromethyl)-1H-pyrazol-5-yl)methanone]
[1]; PC-3, Table 3-1, PC3 cells
  IC50: 1 to 10 µM
[2]; PC-3, Table 3-1, PC3 cells
  IC50: > 10 µM

## CS(=O)(=O)c1c([C@@H]2C[C@H]3CC[C@@H](C2)N3C(=O)c2nc[nH]n2)nc2c(-c3ccc(-c4ccccc4)nc3)cnn2c1N [Compound 3.2, ((1R,3s,5S)-3-(7-amino-6-(methylsulfonyl)-3-(6-phenylpyridin-3-yl)pyrazolo[1,5-a]pyrimidin-5-yl)-8-azabicyclo[3.2.1]octan-8-yl)(1H-1,2,4-triazol-3-yl)methanone]
[1]; PC-3, Table 3-1, PC3 cells
  IC50: 0.001 to 0.1 µM
[2]; PC-3, Table 3-1, PC3 cells
  IC50: 0.001 to 0.1 µM
